Measurements from paper PMC7106896, “Synthesis and biological evaluation of 2-(4-methylsulfonyl phenyl) indole derivatives: multi-target compounds with dual antimicrobial and anti-inflammatory activities” (BMC Chemistry, 2020).
Converted amounts (≈) assume the structure as drawn.

How the values were obtained:
human red blood cells = experiment: Hemolysis of human red blood cells; type: cell-based
Description: (§1) The safety margin for the active compounds to human cells was determined through cytotoxicity against human embryonic kidney cell line and hemolysis of human red blood cells. The tested compounds 7a, 7g, and 7i were tolerated and non-toxic to human cells as the cytotoxic and hemolytic dose was higher than the therapeutic dose (Table 2).

[1] = test system: Candida albicans (ATCC 90028); experiment: Antifungal screening (CO-ADD), growth inhibition at single concentration; type: cell-based; conditions: ATCC90028, at 32 µg/mL concentration, read-out: growth inhibition % Ca (C. albicans)
Description: (§2) The antimicrobial study was performed by CO-ADD (The Community for Antimicrobial Drug Discovery), funded by the Wellcome Trust (UK) and The University of Queensland (Australia). Evaluation of all synthesized compounds for their antimicrobial activities was done against five pathogenic bacteria, methicillin-resistant Staphylococcus aureus (ATCC 43300) as Gram-positive bacteria, Escherichia coli (ATCC 25922), Klebsiella pneumonia (ATCC 700603), Acinetobacter baumannii (ATCC 19606) and Pseudomonas aeruginosa (ATCC 27853) as Gram-negative bacteria and antifungal activity against two pathogenic fungal strains Candida albicans (ATCC 90028) and Cryptococcus neoformans var. grubii (H99; ATCC 208821) (Table 1).

[2] = Cytotoxicity against human embryonic kidney cell line; type: cell-based; conditions: read-out: CC50 (concentration at 50% cytotoxicity)
Description: as §1

[3] = test system: MRSA bacteria and E. coli, K. pneumoniae, P. aeruginosa, and A. baumannii; experiment: Antibacterial screening, result pooled over the five bacteria; type: cell-based; conditions: read-out: growth inhibition, range over MRSA, E. coli, K. pneumoniae, P. aeruginosa and A. baumannii
Description: as §2

E. coli = experiment: Minimal inhibitory concentration measurement; type: cell-based; conditions: Escherichia coli; read-out: MIC Ec (E. coli)
Description: (§3) The antimicrobial and antifungal screening was performed according to CO-ADD (The Community for Antimicrobial Drug Discovery) procedures [27].

[4] = test system: C. neoformans var. grubii; experiment: Minimal inhibitory concentration measurement; type: cell-based; conditions: Cryptococcus neoformans; read-out: MIC Cn (C. neoformans var. grubii)
Description: as §3

P. aeruginosa = experiment: Minimal inhibitory concentration measurement; type: cell-based; conditions: Pseudomonas aeruginosa; read-out: MIC Pa (P. aeruginosa)
Description: as §3

[5] = test system: carrageenan-induced rat paw edema; experiment: Carrageenan-induced rat paw edema assay; type: in vivo; conditions: for Edema thickness (mm) ± SEM: n = 4
Description: Pretreatment of rats with compounds 7a–k, 8a–c, and 9a–c before injection with carrageenan in rat paw which induces inflammation and then the percentage of paw edema reduction was measured after certain hours according to previously reported procedures.

Ovine COX-1 = target: T1, Ovine COX-1 (Ovis aries, UniProt P05979); experiment: In vitro COX inhibition colorimetric assay; type: biochemical
T1 construct: purchased Cayman Chemical, Ann Arbor, MI, USA 760111
T1 sequence (P05979 25-600): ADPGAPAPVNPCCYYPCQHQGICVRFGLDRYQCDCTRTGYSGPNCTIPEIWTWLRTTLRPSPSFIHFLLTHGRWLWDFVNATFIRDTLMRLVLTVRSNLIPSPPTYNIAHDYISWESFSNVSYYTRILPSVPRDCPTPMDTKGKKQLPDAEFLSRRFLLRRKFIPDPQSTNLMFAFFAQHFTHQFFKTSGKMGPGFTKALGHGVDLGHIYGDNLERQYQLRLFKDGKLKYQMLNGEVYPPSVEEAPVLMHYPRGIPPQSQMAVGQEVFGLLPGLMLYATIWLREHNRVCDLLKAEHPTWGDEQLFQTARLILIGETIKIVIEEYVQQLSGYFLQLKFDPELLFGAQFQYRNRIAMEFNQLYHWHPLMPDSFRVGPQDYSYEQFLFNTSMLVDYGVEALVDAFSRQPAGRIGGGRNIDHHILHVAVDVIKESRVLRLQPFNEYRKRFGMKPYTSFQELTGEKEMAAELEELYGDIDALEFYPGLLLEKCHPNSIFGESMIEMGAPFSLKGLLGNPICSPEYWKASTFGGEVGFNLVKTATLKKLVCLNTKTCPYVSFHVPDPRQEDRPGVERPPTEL

[6] = test system: Pseudomonas aeruginosa (ATCC 27853); experiment: Antimicrobial screening (CO-ADD), growth inhibition at single concentration; type: cell-based; conditions: ATCC27853, at 32 µg/mL concentration, read-out: growth inhibition % Pa (P. aeruginosa)
Description: as §2

[7] = test system: Escherichia coli (ATCC 25922); experiment: as above; type: cell-based; conditions: ATCC25922, at 32 µg/mL concentration, read-out: growth inhibition % Ec (E. coli)
Description: as §2

[8] = test system: Acinetobacter baumannii (ATCC 19606); experiment: as above; type: cell-based; conditions: ATCC19606, at 32 µg/mL concentration, read-out: growth inhibition % Ab (A. baumannii)
Description: as §2

[9] = test system: Klebsiella pneumonia (ATCC 700603); experiment: as above; type: cell-based; conditions: Klebsiella pneumoniae, ATCC700603; at 32 µg/mL concentration; read-out: growth inhibition % Kp (K. pneumoniae)
Description: as §2

[10] = test system: methicillin-resistant Staphylococcus aureus (ATCC 43300); experiment: as above; type: cell-based; conditions: ATCC 43300 / MRSA, at 32 µg/mL concentration, read-out: growth inhibition % Sa (MRSA)
Description: as §2

MRSA = experiment: Minimal inhibitory concentration measurement; type: cell-based; conditions: Staphylococcus aureus, read-out: MIC Sa (MRSA)
Description: as §3

A. baumannii = experiment: Minimal inhibitory concentration measurement; type: cell-based; conditions: Acinetobacter baumannii; read-out: MIC Ab (A. baumannii)
Description: as §3

C. albicans = experiment: Minimal inhibitory concentration measurement; type: cell-based; conditions: Candida albicans; read-out: MIC Ca (C. albicans)
Description: as §3

human recombinant COX-2 = experiment: In vitro COX inhibition colorimetric assay; type: biochemical; conditions: COX-1 IC50/COX-2 IC50

Compound: CS(=O)(=O)c1ccc(-c2[nH]c3ccc(F)cc3c2/C=N/Nc2ccc(S(N)(=O)=O)cc2)cc1 [Compound 7i, 4-(2-((5-Fluoro-2-(4-(methylsulfonyl)phenyl)-1H-indol-3yl)methylene)hydrazinyl) benzene sulfonamide]
- HC10 (concentration at 10% hemolysis) (human red blood cells): > 32 µg/mL
- melting point: 212 to 214 °C
- MIC Kp (K. pneumoniae) (K. pneumoniae): 2 µg/mL (≈ 4.11 µM)
- inhibition at 32 µg/mL [1]: 15.3%
- CC50 [2]: 2.99 µg/mL (≈ 6.14 µM)
- inhibition at 32 µg/mL [3]: 85.8 to 97.8%
- MIC (E. coli): ≤ 0.25 µg/mL
- MIC [4]: > 32 µg/mL
- MIC (P. aeruginosa): 2 µg/mL (≈ 4.11 µM)
- Edema inhibition % ([5]; 1 h): 73.1%
- Edema thickness (mm) ± SEM ([5]; 1 h): 0.705 ± 0.047 mm
- Edema inhibition % ([5]; 3 h): 94.3%
- Edema thickness (mm) ± SEM ([5]; 3 h): 0.127 ± 0.009 mm
- Edema inhibition % ([5]; 6 h): 90.1%
- Edema thickness (mm) ± SEM ([5]; 6 h): 0.187 ± 0.015 mm
- IC50 (Ovine COX-1): 13.2 µM
- inhibition at 32 µg/mL [6]: 96.9%
- inhibition at 32 µg/mL [7]: 96.5%
- inhibition at 32 µg/mL [8]: 94.3%
- inhibition at 32 µg/mL [9]: 94.4%
- inhibition at 32 µg/mL [10]: 95.2%
- MIC (MRSA): 2 µg/mL (≈ 4.11 µM)
- MIC (A. baumannii): 4 µg/mL (≈ 8.22 µM)
- MIC (C. albicans): > 32 µg/mL
- Selectivity index (SI) (human recombinant COX-2): 132
